Measured values from patent US20140249135A1, “PIM KINASE INHIBITORS AND METHODS OF THEIR USE” (NOVARTIS AG, priority 2007, published 2014).
Like-named read-outs stand apart in the source and are kept apart here.

Columns and labels:
[1] = target: Pim1 kinase (Homo sapiens, UniProt P11309); experiment: Pim1 ATP depletion assay; assay type: biochemical;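 also: Luciferase-luciferin luminescence readout of residual ATP after PIM1 transfers phosphate to a peptide substrate, 40 µM ATP added, reaction run to roughly half ATP consumption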
[2] = target: T1, human full length PKCE enzyme (Homo sapiens, UniProt Q02156); experiment: In vitro PKCE assay; assay type: biochemical; details: 10 nM enzyme, 40 uM peptide substrate, 20 uM ATP, KinaseGlo Plus readout; read-out: PKCε IC50
T1 construct: human full length PKCE enzyme purchased from InVitrogen; purchased InVitrogen
T1 sequence (Q02156 1-737): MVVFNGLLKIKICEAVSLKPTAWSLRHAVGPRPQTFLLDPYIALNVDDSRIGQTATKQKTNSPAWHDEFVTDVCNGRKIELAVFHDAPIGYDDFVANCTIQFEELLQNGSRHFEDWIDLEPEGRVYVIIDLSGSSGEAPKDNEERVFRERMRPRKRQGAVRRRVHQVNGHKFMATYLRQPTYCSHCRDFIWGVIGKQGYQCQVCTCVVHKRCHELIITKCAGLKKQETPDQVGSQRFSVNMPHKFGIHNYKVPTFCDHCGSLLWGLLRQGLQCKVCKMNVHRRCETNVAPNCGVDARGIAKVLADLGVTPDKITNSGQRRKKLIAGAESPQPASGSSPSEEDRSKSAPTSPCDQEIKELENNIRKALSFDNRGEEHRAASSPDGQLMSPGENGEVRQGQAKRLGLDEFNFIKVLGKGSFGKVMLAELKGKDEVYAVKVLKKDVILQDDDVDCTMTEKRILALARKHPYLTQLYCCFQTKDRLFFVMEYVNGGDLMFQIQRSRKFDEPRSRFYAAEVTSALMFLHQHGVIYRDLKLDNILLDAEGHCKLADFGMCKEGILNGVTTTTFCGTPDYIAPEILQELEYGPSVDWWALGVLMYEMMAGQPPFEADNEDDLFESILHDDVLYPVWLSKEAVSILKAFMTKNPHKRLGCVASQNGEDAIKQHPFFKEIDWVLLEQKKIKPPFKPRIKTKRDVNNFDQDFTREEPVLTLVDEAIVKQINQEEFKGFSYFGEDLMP

[3] = target: Pim3 kinase (Homo sapiens, UniProt Q86V86); experiment: Pim3 ATP depletion assay; assay type: biochemical; details: read-out: IC50 (μM) PIM3
[4] = target: Pim2 kinase (Homo sapiens, UniProt Q9P1W9); experiment: Pim2 ATP depletion assay; assay type: biochemical; details: read-out: IC50 (μM) PIM2;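 also: Luciferase-based luminescent readout of ATP remaining after PIM2 phosphorylates a BAD peptide, final 5 nM enzyme, 4 µM ATP, 10 µM peptide, 2.5% DMSO, run to roughly half ATP consumption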
[5] = target: KDR kinase (Homo sapiens, UniProt P35968); experiment: KDR AlphaScreen assay; details: KDR IC50 (μM)
[6] = system: HEL 92.1.7 cells; experiment: Cell proliferation assay (CellTiter-Glo), HEL 92.1.7; assay type: cell-based; details: Homo sapiens, read-out: EC50 (μM) HEL 92.1.7
Procedure, shortened: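 Cells in RPMI1640 with 10% FBS were seeded at 1000 cells/well and exposed to compound dilutions from DMSO stocks for 3 days at 37 °C. Viability was read by CellTiter-Glo luminescence. EC50 was derived from percent inhibition relative to DMSO-only and control-compound wells.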

[7] = Pim1 ATP depletion assay, read-out: IC50 (μM) PIM1

Chain of Pim2 kinase (Q9P1W9 whole entry): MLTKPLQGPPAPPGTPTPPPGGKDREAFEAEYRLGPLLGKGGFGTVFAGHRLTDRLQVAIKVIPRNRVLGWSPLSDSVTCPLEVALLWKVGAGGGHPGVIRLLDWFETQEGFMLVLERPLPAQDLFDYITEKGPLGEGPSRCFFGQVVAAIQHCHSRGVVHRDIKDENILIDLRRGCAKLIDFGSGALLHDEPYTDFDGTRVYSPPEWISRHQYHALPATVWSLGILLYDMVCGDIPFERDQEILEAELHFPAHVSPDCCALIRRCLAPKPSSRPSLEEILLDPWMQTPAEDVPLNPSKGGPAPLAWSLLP
Chain of Pim1 kinase (P11309 whole entry): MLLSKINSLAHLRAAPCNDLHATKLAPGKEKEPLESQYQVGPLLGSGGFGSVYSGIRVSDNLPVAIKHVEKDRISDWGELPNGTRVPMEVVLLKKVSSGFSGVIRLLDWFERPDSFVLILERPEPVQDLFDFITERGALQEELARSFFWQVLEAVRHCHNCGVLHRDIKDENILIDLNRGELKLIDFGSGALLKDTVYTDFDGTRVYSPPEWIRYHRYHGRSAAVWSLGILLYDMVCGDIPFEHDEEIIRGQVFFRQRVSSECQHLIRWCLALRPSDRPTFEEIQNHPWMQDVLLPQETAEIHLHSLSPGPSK
Chain of KDR kinase (P35968 20-1356): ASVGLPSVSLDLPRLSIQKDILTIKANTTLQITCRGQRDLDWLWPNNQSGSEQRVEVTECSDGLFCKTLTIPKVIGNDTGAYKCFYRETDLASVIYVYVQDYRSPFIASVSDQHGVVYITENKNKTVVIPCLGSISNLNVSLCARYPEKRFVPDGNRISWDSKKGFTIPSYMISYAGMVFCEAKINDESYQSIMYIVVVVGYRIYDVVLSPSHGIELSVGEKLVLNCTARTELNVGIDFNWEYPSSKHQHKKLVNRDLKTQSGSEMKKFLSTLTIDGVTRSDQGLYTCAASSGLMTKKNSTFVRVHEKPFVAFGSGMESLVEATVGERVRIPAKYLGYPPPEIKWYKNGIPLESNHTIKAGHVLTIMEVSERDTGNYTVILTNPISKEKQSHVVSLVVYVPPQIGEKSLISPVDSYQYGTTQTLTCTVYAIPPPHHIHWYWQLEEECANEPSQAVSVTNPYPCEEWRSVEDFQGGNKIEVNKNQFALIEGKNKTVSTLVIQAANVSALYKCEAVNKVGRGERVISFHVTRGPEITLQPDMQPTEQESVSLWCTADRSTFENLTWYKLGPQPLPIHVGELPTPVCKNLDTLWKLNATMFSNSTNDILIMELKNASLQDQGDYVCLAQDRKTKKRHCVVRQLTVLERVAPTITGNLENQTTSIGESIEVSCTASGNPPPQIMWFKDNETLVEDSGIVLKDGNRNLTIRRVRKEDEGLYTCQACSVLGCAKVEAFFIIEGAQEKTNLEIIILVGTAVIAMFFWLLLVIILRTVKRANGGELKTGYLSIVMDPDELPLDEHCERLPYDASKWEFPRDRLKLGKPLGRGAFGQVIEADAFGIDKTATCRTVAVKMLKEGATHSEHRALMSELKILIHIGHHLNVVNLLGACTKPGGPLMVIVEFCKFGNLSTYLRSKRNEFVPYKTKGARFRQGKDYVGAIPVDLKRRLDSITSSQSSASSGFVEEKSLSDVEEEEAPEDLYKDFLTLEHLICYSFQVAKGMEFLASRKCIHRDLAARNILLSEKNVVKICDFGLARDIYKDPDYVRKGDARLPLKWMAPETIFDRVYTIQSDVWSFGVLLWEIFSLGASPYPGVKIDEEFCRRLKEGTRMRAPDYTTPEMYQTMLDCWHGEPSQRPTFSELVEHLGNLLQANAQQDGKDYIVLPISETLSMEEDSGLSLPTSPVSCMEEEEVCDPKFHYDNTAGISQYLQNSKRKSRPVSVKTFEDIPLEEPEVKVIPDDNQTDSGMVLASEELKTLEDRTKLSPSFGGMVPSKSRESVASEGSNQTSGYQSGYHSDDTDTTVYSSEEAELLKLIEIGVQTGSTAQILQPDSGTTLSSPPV

## Nc1nccnc1C(=O)Nc1cnccc1N1CCCCC1 [Example 123, 3-amino-N-(4-piperidin-1-yl-pyridin-3-yl)pyrazine-2-carbox-amide]
[1]
  IC50: < 1 µM
[2]
  IC50: < 1000 nM
[3]
  IC50: < 1 µM
[4]
  IC50: 1 to 10 µM
[5]
  IC50: 1 to 10 µM
[6]
  EC50: < 1 µM

## Nc1ccc(-c2ccc(F)cc2F)nc1C(=O)Nc1cnccc1N1CCC[C@H](N)C1 [Example 431, 3-amino-6-(2,4-difluoro-phenyl)-pyridine-2-carboxylic acid ((S)-3-amino-3,4,5,6-tetrahydro-2H-[1,4′]bipyridinyl-3′-yl)-amide]
[1]; [7]
  IC50: < 1 µM
[2]
  IC50: 1000 to 10000 nM
[3]
  IC50: < 1 µM
[4]
  IC50: < 1 µM
[5]
  IC50: > 25 µM
[6]
  EC50: 1 to 5 µM

## Nc1nc(N)c(C(=O)Nc2cnccc2N2CCCC(N)C2)nc1Cl (stereo not drawn) [Example 183, 3,5-diamino-N-[4-(3-amino-piperidin-1-yl)pyridin-3-yl]-6-chloropyrazine-2-carboxamide]
[1]; [7]
  IC50: < 1 µM
[2]
  IC50: 10000 to 25000 nM
[3]
  IC50: < 1 µM
[4]
  IC50: < 1 µM
[5]
  IC50: 1 to 10 µM
[6]
  EC50: < 1 µM

## Nc1nc(N)c(C(=O)Nc2[nH]c(=O)ncc2N2CCCCC2)nc1Cl [Example 131, 3,5-diamino-6-chloro-N-(2-oxo-5-piperidin-1-yl-2,3-dihydro-pyrimidin-4-yl)pyrazine-2-carboxamide]
[1]; [7]
  IC50: < 1 µM
[2]
  IC50: > 25000 nM
[3]
  IC50: < 1 µM
[4]
  IC50: < 1 µM
[5]
  IC50: < 1 µM
[6]
  EC50: < 1 µM

## Nc1nc(N)c(-c2ccccc2Cl)nc1C(=O)Nc1cnccc1N1CCCC(N)C1 (stereo not drawn) [Example 342, 3,5-diamino-6-(2-chloro-phenyl)-pyrazine-2-carboxylic acid (3-amino-3,4,5,6-tetra-hydro-2H-[1,4′]bipyridinyl-3′-yl)-amide]
[1]; [7]
  IC50: < 1 µM
[2]
  IC50: 1000 to 10000 nM
[3]
  IC50: < 1 µM
[4]
  IC50: < 1 µM
[5]
  IC50: 1 to 10 µM
[6]
  EC50: < 1 µM

## Nc1nccnc1C(=O)Nc1[nH]c(=O)ncc1N1CCCC(N)C1 (stereo not drawn) [Example 235, 3-amino-N-[5-(3-aminopiperidin-1-yl)-2-oxo-2,3-dihydro-pyrimidin-4-yl]pyrazine-2-carboxamide]
[1]; [7]
  IC50: < 1 µM
[2]
  IC50: < 1000 nM
[3]
  IC50: < 1 µM
[4]
  IC50: < 1 µM
[5]
  IC50: 10 to 25 µM
[6]
  EC50: > 10 µM

## Cc1ccccc1-c1nc(C(=O)Nc2cnccc2N2CCCC(N)C2)c(N)nc1N (stereo not drawn) [Example 340, 3,5-diamino-6-o-tolyl-pyrazine-2-carboxylic acid (3-amino-3,4,5,6-tetrahydro-2H-[1,4′]bipyridinyl-3′-yl)-amide]
[1]; [7]
  IC50: < 1 µM
[2]
  IC50: 1000 to 10000 nM
[3]
  IC50: < 1 µM
[4]
  IC50: < 1 µM
[5]
  IC50: 10 to 25 µM
[6]
  EC50: 1 to 5 µM

## Nc1nc(N)c(C(=O)Nc2[nH]c(=O)ncc2N2CCC(F)(F)CC2)nc1Cl [Example 161, 3,5-diamino-6-chloro-N-[5-(4,4-difluoropiperidin-1-yl)-2-oxo-2,3-dihydropyrimidin-4-yl]-pyrazine-2-carboxamide]
[1]; [7]
  IC50: < 1 µM
[2]
  IC50: > 25000 nM
[3]
  IC50: < 1 µM
[4]
  IC50: < 1 µM
[5]
  IC50: < 1 µM
[6]
  EC50: > 10 µM

## Nc1nc(N)c(C(=O)Nc2[nH]c(=O)ncc2N2CCC(C(F)(F)F)CC2)nc1Cl [Example 159, 3,5-diamino-6-chloro-N-{2-oxo-5-[4-(trifluoromethyl)piperidin-1-yl]-2,3-dihydropyrimidin-4-yl}pyrazine-2-carboxamide]
[1]; [7]
  IC50: < 1 µM
[2]
  IC50: > 25000 nM
[3]
  IC50: < 1 µM
[4]
  IC50: < 1 µM
[5]
  IC50: < 1 µM
[6]
  EC50: 5 to 10 µM

## Nc1nccnc1C(=O)Nc1[nH]c(=O)ncc1N1CCCCC1 [Example 130, 3-amino-N-(2-oxo-5-piperidin-1-yl-2,3-dihydropyrimidin-4-yl)-pyrazine-2-carboxamide]
[1]; [7]
  IC50: < 1 µM
[2]
  IC50: < 1000 nM
[3]
  IC50: < 1 µM
[4]
  IC50: < 1 µM
[5]
  IC50: 1 to 10 µM
[6]
  EC50: 5 to 10 µM

## Nc1nc(N)c(-c2ccccc2C(F)(F)F)nc1C(=O)Nc1cnccc1N1CCCC(N)C1 (stereo not drawn) [Example 341, 3,5-diamino-6-(2-trifluoro-methyl-phenyl)-pyrazine-2-carboxylic acid (3-amino-3,4,5,6-tetrahydro-2H-[1,4′]bi-pyridinyl-3′-yl)-amide]
[1]; [7]
  IC50: < 1 µM
[2]
  IC50: < 1000 nM
[3]
  IC50: < 1 µM
[4]
  IC50: < 1 µM
[5]
  IC50: 1 to 10 µM
[6]
  EC50: 1 to 5 µM

## N#Cc1ccccc1-c1ccc(N)c(C(=O)Nc2cnccc2N2CCC[C@H](N)C2)n1 [Example 332, 3-amino-6-(2-cyano-phenyl)-pyridine-2-carboxylic acid ((S)-3-amino-3,4,5,6-tetra-hydro-2H-[1,4′]bipyridinyl-3′-yl)-amide]
[1]; [7]
  IC50: < 1 µM
[2]
  IC50: 1000 to 10000 nM
[3]
  IC50: < 1 µM
[4]
  IC50: < 1 µM
[5]
  IC50: > 25 µM
[6]
  EC50: 1 to 5 µM

## Nc1cccnc1C(=O)Nc1ccncc1N1CCCC(N)C1 (stereo not drawn) [Example 174, 3-amino-N-[3-(3-aminopiperidin-1-yl)pyridin-4-yl]pyridine-2-carboxamide]
[1]; [7]
  IC50: < 1 µM
[2]
  IC50: 1000 to 10000 nM
[3]
  IC50: < 1 µM
[4]
  IC50: < 1 µM
[5]
  IC50: > 25 µM
[6]
  EC50: > 10 µM

## NCC1CCCN(c2ccncc2NC(=O)c2nccnc2N)C1 (stereo not drawn) [Example 184, 3-amino-N-{4-[3-(aminomethyl)-piperidin-1-yl]pyridin-3-yl}pyrazine-2-carboxamide]
[1]
  IC50: < 1 µM
[2]
  IC50: < 1000 nM
[3]
  IC50: < 1 µM
[4]
  IC50: 1 to 10 µM
[5]
  IC50: 10 to 25 µM
[6]
  EC50: < 1 µM

## Cc1ccc(F)c(-c2ccc(N)c(C(=O)Nc3cnccc3N3CCC[C@H](N)C3)n2)c1 [Example 333, 3-amino-6-(2-fluoro-5-methyl-phenyl)-pyridine-2-carboxylic acid ((S)-3-amino-3,4,5,6-tetrahydro-2H-[1,4′]bi-pyridinyl-3′-yl)-amide]
[1]; [7]
  IC50: < 1 µM
[2]
  IC50: 10000 to 25000 nM
[3]
  IC50: < 1 µM
[4]
  IC50: < 1 µM
[5]
  IC50: > 25 µM
[6]
  EC50: 1 to 5 µM

## Nc1nc(N)c(-c2ccccc2F)nc1C(=O)Nc1cnccc1N1CCCC(N)C1 (stereo not drawn) [Example 343, 3,5-diamino-6-(2-fluoro-phenyl)-pyrazine-2-carboxylic acid (3-amino-3,4,5,6-tetra-hydro-2H-[1,4′]bipyridinyl-3′-yl)-amide]
[1]; [7]
  IC50: < 1 µM
[2]
  IC50: 1000 to 10000 nM
[3]
  IC50: < 1 µM
[4]
  IC50: < 1 µM
[5]
  IC50: 1 to 10 µM
[6]
  EC50: < 1 µM

## Nc1cccnc1C(=O)Nc1cnccc1N1CCC[C@H](N)C1 [Example 175, 3-amino-N-{4-[(3S)-3-amino-piperidin-1-yl]pyridin-3-yl}-pyridine-2-carboxamide]
[1]
  IC50: < 1 µM
[2]
  IC50: 1000 to 10000 nM
[3]
  IC50: < 1 µM
[4]
  IC50: < 1 µM
[5]
  IC50: > 25 µM
[6]
  EC50: > 10 µM

## Nc1ccc(-c2ccc(N)c(C(=O)Nc3cnccc3N3CCC[C@H](N)C3)n2)cn1 [Example 418, 5,6′-diamino-[2,3′]bipyridinyl-6-carboxylic acid ((S)-3-amino-3,4,5,6-tetrahydro-2H-[1,4′]bi-pyridinyl-3′-yl)-amide]
[1]; [7]
  IC50: < 1 µM
[2]
  IC50: 10000 to 25000 nM
[3]
  IC50: < 1 µM
[4]
  IC50: < 1 µM
[5]
  IC50: > 25 µM
[6]
  EC50: 1 to 5 µM

## CS(=O)(=O)c1cccc(-c2ccc(N)c(C(=O)Nc3cnccc3N3CCC[C@H](N)C3)n2)c1 [Example 320]
[1]; [7]
  IC50: < 1 µM
[2]
  IC50: 10000 to 25000 nM
[3]
  IC50: < 1 µM
[4]
  IC50: < 1 µM
[5]
  IC50: > 25 µM
[6]
  EC50: > 10 µM

## COc1ccccc1-c1nc(C(=O)Nc2cnccc2N2CCCC(N)C2)c(N)nc1N (stereo not drawn) [Example 344, 3,5-diamino-6-(2-methoxy-phenyl)-pyrazine-2-carboxylic acid (3-amino-3,4,5,6-tetra-hydro-2H-[1,4′]bipyridinyl-3′-yl)-amide]
[1]; [7]
  IC50: < 1 µM
[2]
  IC50: 10000 to 25000 nM
[3]
  IC50: < 1 µM
[4]
  IC50: < 1 µM
[5]
  IC50: > 25 µM
[6]
  EC50: > 10 µM
